We go through eight compounds from patent publication US9382265B2, “Oxazolidone compound, preparing method and application thereof” (SHANGHAI INSTITUTE OF MATERIA MEDICA, CHINESE ACADEMY OF …, priority 2013, dated 2016).

Data set [1] concerns rabbit sodium citrate anticoagulant plasma. In words: In vitro anticoagulant activity: prothrombin time (PT). It is filed as biochemical. As to conditions: compound concentration that prolonged the PT time by 1 time vs blank control. The protocol:
The experiment used […]-1 immunomagnetic single channel semi-automated blood coagulation analyzer to measure blood coagulation time. Principle: An excessive amount of tissue thromboplastin (infusion of preparations such as human brain, rabbit brain, placenta, and lung tissue) and calcium ion are added to the plasma to be tested, thereby converting prothrombin into thrombin, and the latter converts fibrinogen into fibrin. The time needed for plasma coagulation is observed as prothrombin time. This experiment is the most commonly used screening test for the evaluation of an extrinsic coagulation system. Test method: To the rabbit sodium citrate anticoagulant plasma (3.8% sodium citrate, 1:9 mixture) were added various concentrations of the compounds to be tested. PT reagents ([…], Beijing) were used to measure the prothrombin activation time. The compound concentration that prolonged the PT time by 1 time, when compared with the blank control, was recorded as PT2, thereby evaluating the anticoagulant activity of the compounds. Rabbit sodium citrate anticoagulant plasma (3.8% sodium citrate plasma, 1:9 mixture) was purchased from Guangzhou Ruite Bio company; […]-1 immunomagnetic single channel semi-automated blood coagulation analyzer and […] blood coagulation 3-item reagents were purchased from Beijing […] instrument company. […] Each concentration of each sample was assayed in 3-6 duplicate wells, and the experiment was independently carried out for 2-3 times.

The test system is the same in data set [2]. As to the kind of experiment: In vitro anticoagulant activity: activated partial thromboplastin time (APTT). Type of data set: biochemical. Particulars: compound concentration that prolonged the APTT time by 1 time vs blank control. As to the method:
The experiment used […]-1 immunomagnetic single channel semi-automated blood coagulation analyzer to measure blood coagulation time. Principle: At 37° C., using Kaolin to activate factors □ and □; using cephalin (partial thromboplastin) to replace platelet factor 3; and in the presence of Ca^2+, the time needed for the coagulation of plasma which lacks of platelet is observed as activated partial thromboplastin time. This experiment is a screening test which is sensitive and commonly used for the endogenous blood coagulation system. Test method: To the rabbit sodium citrate anticoagulant plasma (3.8% sodium citrate, 1:9 mixture) were added various concentrations of the compounds to be tested. APTT reagents ([…], Beijing) were used to measure the […] activation time. The compound concentration that prolonged the APTT time by 1 time, when compared with the blank control, was recorded as APTT2, thereby evaluating the anticoagulant activity of the compounds. Rabbit sodium citrate anticoagulant plasma (3.8% sodium citrate plasma, 1:9 mixture) was purchased from Guangzhou Ruite Bio company; […]-1 immunomagnetic single channel semi-automated blood coagulation analyzer and […] blood coagulation 3-item reagents were purchased from Beijing […] instrument company. […] Each concentration of each sample was assayed in 3-6 duplicate wells, and the experiment was independently carried out for 2-3 times.

For a further data set, the system named is thrombus formation. In words: In vivo anticoagulant activity: electrically induced carotid artery thrombus formation time. Particulars: for ED50: Rattus norvegicus, po, male SD rats, intragastric administration, 3 mA electrical stimulation of left common carotid artery 1 h after administration, read-out: ED50 for prolonging the thrombus formation time. Set-up: species or system rat. As to the method:
The rats were fasted for 12 h, then weighted, and treated by intragastric administration. After 45 min, the rats were anesthetized with chloral hydrate (350 mg/kg), immobilized, and the left common carotid artery was exposed by surgery. The artery and the surrounding tissue were separated by plastic wrap. Electrical stimulation was started 1 h after intragastric administration. The stimulation electrode of the BT87-4 tester for experimental in vivo thrombus formation was placed at the end of the blood vessels proximal to the heart. 3 mA current was used for a 2 min of stimulation. The instrument started the timer automatically when the stimulation began. The stimulation switch was turned off when the stimulation ended. The stimulation electrode was removed, and a thermostat probe was placed at the end of the artery on the stimulation site, which end is distal to the heart. At the time of 600 seconds, the pointer of the thermostat panel was slowly moved to the position of 0. The time from the start of simulation to the alarm of the instrument was recorded as the time of blood vessel blockage (or the time of thrombus formation). If a drug has antithrombosis effect, the time of thrombus formation (time of blood vessel blockage) will be prolonged. IBM SPSS Statistics 20 software was used for the t test of the experimental data.

In the next data set the target is T1, human recombinant FXa (Homo sapiens, UniProt P00742).
T1 construct: purchased Calbiochem; host or cells: human plasma
As to the kind of experiment: FXa inhibitory activity assay (chromogenic substrate, 405 nm). Type of data set: biochemical. Particulars: inhibitory activity on FXa, preincubated at 37° C. for 10 mins. As to the method:
Experimental principle and method: FXa cuts the Arg carboxyl end in the substrate N-Z-D-Arg-Gly-Arg-pDA in vitro and releases p-nitrophenylamine which has specific absorption at 405 nm wavelength. The amount of the […] generated is determined at 405 nm to evaluate the activity of the compound to inhibit the human recombinant FXa in vitro.
Human plasma coagulation factor Xa was purchased from Calbiochem; the substrate N-Z-D-Arg-Gly-Arg-pDA was purchased from chromogenic. The subject compound, enzyme and the reaction buffer were mixed and preincubated at 37° C. for 10 mins. The substrate was added. The absorption at 405 nm wavelength was measured continuously over 20 mins. At the same time, a blank control group (without enzyme, 100% inhibition rate) and a negative control group (replace the subject compound with DMSO, 0% inhibition rate) were set up. The reaction system was 100 μl (50 μl of Tris buffer, 10 μl of compound, 20 μl (0.027 U/ml) of enzyme, 20 μl (300 μM) of substrate). Each concentration of each sample was assayed in triplicate. The experiment was carried out for 2 times independently.

The next data set can be described thus: in vivo. The protocol: Healthy male SD rats, body weight 200-220 g, randomly divided into 6 groups with each group 3-4 rats, were administered with the subject compound via intragastric administration and intravenous injection, respectively.
The subject compound was prepared with 5% DMSO/5% Twain 80/90% saline into solution for administration.
The rats were fasted for 12 hrs before experiment, free water-drinking, and were all fed 2 h after administration. Blood sampling time and sample treatment:
intragastric administration: 0.25, 0.5, 1.0, 2.0, 3.0, 4.0, 6.0, 8.0, and 24 h after administration;
intravenous administration: 5 min, 0.25, 0.5, 1.0, 2.0, 4.0, 6.0, 8.0, and 24 h after administration.
At the time points defined above, 0.3 ml of venous blood was taken from the posterior venous plexus of rats to heparinized tubes, centrifuged at 11000 rpm for 5 mins to separate the plasma, which was then frozen at −20° C. in a refrigerator.

[3] abbreviates: male, SD, rat, in vivo, iv, 3 mg/kg.
[4] abbreviates: male, SD, rat, in vivo, po, 10 mg/kg.
Where [5] appears, read: male, SD, rat, in vivo, iv, 4.5 mg/kg.
Setting [6] is: male, SD, rat, in vivo, po, 9 mg/kg.

SMILES strings stand for the structures.

T1 sequence (P00742 235-488 limits assumed): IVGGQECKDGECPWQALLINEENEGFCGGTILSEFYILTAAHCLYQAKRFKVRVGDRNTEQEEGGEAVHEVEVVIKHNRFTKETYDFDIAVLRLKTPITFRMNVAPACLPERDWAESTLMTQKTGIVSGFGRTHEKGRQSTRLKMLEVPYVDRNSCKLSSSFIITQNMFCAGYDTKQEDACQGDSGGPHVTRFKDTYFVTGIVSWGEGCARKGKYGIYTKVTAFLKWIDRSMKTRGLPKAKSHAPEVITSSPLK
T1 sequence (P00742 41-179 partner limits assumed): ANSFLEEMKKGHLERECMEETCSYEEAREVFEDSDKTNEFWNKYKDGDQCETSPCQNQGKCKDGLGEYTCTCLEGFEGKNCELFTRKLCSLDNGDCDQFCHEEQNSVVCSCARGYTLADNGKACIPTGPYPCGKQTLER

Take `O=C(NC[C@@H]1OC(=O)N2c3ccc(N4CCOCC4=O)cc3OC[C@@H]12)c1ccc(Cl)s1` [Compound 1, 5-chloro-N-(((3S,3aS)-1-oxo-7-(3-oxomorpholin-4-yl)-1,3,3a,4-tetrahydrobenzo[b]oxazolo[3,4-d][1,4]oxazin-3-yl)methyl)thiophene-2-carboxamide]: in data set [1], the PT2 was 0.184 µM. The same compound returned an APTT2 in data set [2] of 0.141 µM. Moreover, the ED50 in the data set on thrombus formation stood at 2.97 mg/kg. The “activity relative to rivaroxaban” value in the data set on thrombus formation (ratio of ED50s for prolonging thrombus formation time, rats) was 1.53 times. Also, at human recombinant FXa, the IC50 came out at 2.25 ± 0.01 nM. The compound further had a F in the data set “in vivo” (male, SD, rat, in vivo) of 63.7%. For the same compound, in the data set “in vivo” (setting [3]), the CLz stood at 3.35 mL/min/kg, the MRT stood at 1.03 h, the T1/2 is 1.00 h and the Vss was determined as 0.201 L/kg. In the data set “in vivo” (setting [4]), the Cmax amounted to 11901 ng/mL, the MRT came out at 2.23 h, the T1/2 worked out at 1.33 h and the Tmax was 0.75 h. Moreover, in “in vivo” (rat, in vivo, iv, 3 mg/kg), the AUC0-t is given as 15324 ngh/mL and the “AUC0-∞” value amounted to 15339 ngh/mL. Further, in the data set “in vivo” (rat, in vivo, po, 10 mg/kg), the AUC0-t came to 32529 ngh/mL and the “AUC0-∞” value is given as 33044 ngh/mL.
`O=C(NC[C@@H]1OC(=O)N2c3ccc(N4CCCCC4=O)cc3OC[C@@H]12)c1ccc(Cl)s1` [Compound 2, 5-chloro-N-(((3S,3aS)-1-oxo-7-(2-oxopiperidin-1-yl)-1,3,3a,4-tetrahydrobenzo[b]oxazolo[3,4-d][1,4]oxazin-3-yl)methyl)thiophene-2-carboxamide] displayed a PT2 in data set [1] of 1.06 µM. The APTT2 in data set [2] was determined as 0.932 µM. For the same compound, the F in the data set “in vivo” (male, SD, rat, in vivo) was 42.0%. In addition, in the data set “in vivo” (setting [5]), the CLz came to 2.28 mL/min/kg, the MRT was 3.04 h and the Vss is 0.406 L/kg. In “in vivo” (setting [6]), the Cmax amounted to 6927 ng/mL, the MRT is 3.4 h and the Tmax came to 0.67 h. In the data set “in vivo” (rat, in vivo, iv, 4.5 mg/kg), the AUC0-t stood at 31057 ngh/mL and the “AUC0-∞” value was 33562 ngh/mL. In addition, in “in vivo” (rat, in vivo, po, 9 mg/kg), the AUC0-t is 26119 ngh/mL and the “AUC0-∞” value came out at 28527 ngh/mL. Besides, the T1/2 in “in vivo” (rats, intravenous injection (4.5 mg/Kg)) is given as 1.95 h. This compound had a T1/2 in “in vivo” (rats, oral administration (9 mg/Kg)) of 2.10 h.
`O=C(NC[C@@H]1OC(=O)N2c3ccc(N4CCOCC4=O)cc3OC[C@@H]12)c1ccc(Cl)cc1` [Compound 17, 4-chloro-N-(((3S,3aS)-1-oxo-7-(3-oxomorpholin-4-yl)-1,3,3a,4-tetrahydrobenzo[b]oxazolo[3,4-d][1,4]oxazin-3-yl)methyl)benzamide]: the IC50 at human recombinant FXa turned out to be 12.2 ± 10.5 nM.
The same measure, in the same setting: the same measure for `O=C(NC[C@@H]1OC(=O)N2c3ccc(N4CC[C@@H](F)CC4=O)cc3OC[C@@H]12)c1ccc(Cl)s1` [Compound 33, 5-chloro-N-(((3S,3aS)-7-((R)-4-fluro-2-oxopiperidin-1-yl)-1-oxo-1,3,3a,4-tetrahydrobenzo[b]oxazolo[3,4-d][1,4]oxazin-3-yl)methyl)-thiophene-2-carboxamide]: 15 ± 1.6 nM; for `O=C(NC[C@@H]1OC(=O)N2c3ccc(N4CC[C@H](F)CC4=O)cc3OC[C@@H]12)c1ccc(Cl)s1` [Compound 34, 5-chloro-N-(((3S,3aS)-7-((S)-4-fluro-2-oxopiperidin-1-yl)-1-oxo-1,3,3a,4-tetrahydrobenzo[b]oxazolo[3,4-d][1,4]oxazin-3-yl)methyl)-thiophene-2-carboxamide]: 19.3 ± 3.39 nM; for `NS(=O)(=O)c1ccccc1-c1ccc2c(c1)OC[C@H]1[C@H](CNC(=O)c3ccc(Cl)s3)OC(=O)N21` [Compound 35, 5-chloro-N-(((3S,3aS)-1-oxo-7-(2-aminosulfonylphenyl)-1,3,3a,4-tetrahydrobenzo[b]oxazolo[3,4-d][1,4]oxazin-3-yl)methyl)thiophene-2-carboxamide]: 19.6 ± 16.9 nM.
The same measure, in the same setting: next, `CS(=O)(=O)c1ccccc1-c1ccc2c(c1)OC[C@H]1[C@H](CNC(=O)c3ccc(Cl)s3)OC(=O)N21` [Compound 36, 5-chloro-N-(((3S,3aS)-7-(2-(methylsulfonyl)phenyl)-1-oxo-1,3,3a,4-tetrahydrobenzo[b]oxazolo[3,4-d][1,4]oxazin-3-yl)methyl)thiophene-2-carboxamide]: 12.2 ± 4.08 nM.
Turning to `O=C(NC[C@H]1CN(c2ccc(N3CCOCC3=O)cc2)C(=O)O1)c1ccc(Cl)s1` [rivaroxaban, reference compound], in data set [1], the PT2 stood at 0.399 µM. In data set [2], this compound showed an APTT2 of 0.315 µM. The ED50 in the data set with thrombus formation came out at 4.53 mg/kg. In the data set “in vivo” (male, SD, rat, in vivo), this compound gave an F of 4.6%. Besides, in the data set “in vivo” (setting [3]), the CLz stood at 4.75 mL/min/kg, the MRT was determined as 0.88 h, the Vd amounted to 0.25 L/kg and the half-life is 0.98 h. Also, in the data set “in vivo” (setting [4]), the Cmax turned out to be 440 ng/mL, the MRT stood at 7.01 h, the Tmax was found to be 0.56 h and the half-life is 4.64 h. In “in vivo” (rat, in vivo, iv, 3 mg/kg), the AUC0-t is reported as 10548 ngh/mL and the “AUC0-∞” value is listed as 10575 ngh/mL. Besides, in the data set “in vivo” (rat, in vivo, po, 10 mg/kg), the AUC0-t is on record as 1608 ngh/mL and the “AUC0-∞” value amounted to 2242 ngh/mL.

As usually defined, the ED50 is the midpoint of the dose-response relation. The term IC50 denotes the concentration at which inhibition is half-maximal. Usually MRT stands for a mean duration of stay, worked out from the concentration-time curve. One may read the Vss as a proportionality between amount in the body and measured concentration, not a real space. One may read the Cmax as the peak of the concentration-time curve. Usually Tmax stands for the time from dosing to the highest level. For orientation: Vd means the apparent volume that relates the amount in the body to the concentration in plasma or blood. The low end stands for little distribution into tissue, the high end for wide distribution into tissue. The term half-life denotes how long it takes for the measured level to halve.
